Laboratory results published in ChEMBL document CHEMBL5126581, “Chlorinated benzothiadiazines inhibit angiogenesis through suppression of VEGFR2 phosphorylation” (Bioorg Med Chem, 2022).
pIC50, pKi: −log10 of the molar value. Calls of active or inactive are those of the source. No cut-off for these calls is given here.

How the values were obtained:
HUVEC = experiment: Antiangiogenic activity in HUVEC cells assessed as inhibition of VEGF-induced cell proliferation at 20 uM incubated for 48 hrs by MTT assay relative to control; format: functional; details: Homo sapiens, values are per cent of control
MDA-MB-468 = experiment: Cytotoxicity against human MDA-MB-468 cells assessed as inhibition of cell growth incubated for 72 hrs by MTS assay; format: functional, cell-based; details: MDA-MB-468, 72 h
[1] = biological target: T1, Vascular endothelial growth factor receptor 2 (Homo sapiens, UniProt P35968); experiment: Inhibition of VEGFR2 phosphorylation in VEGF-induced HUVEC cells assessed as reduction in pVEGFR2 level at 20 uM incubated for 5 mins by Western blot analysis; format: cell-based
T1 sequence (P35968 whole entry): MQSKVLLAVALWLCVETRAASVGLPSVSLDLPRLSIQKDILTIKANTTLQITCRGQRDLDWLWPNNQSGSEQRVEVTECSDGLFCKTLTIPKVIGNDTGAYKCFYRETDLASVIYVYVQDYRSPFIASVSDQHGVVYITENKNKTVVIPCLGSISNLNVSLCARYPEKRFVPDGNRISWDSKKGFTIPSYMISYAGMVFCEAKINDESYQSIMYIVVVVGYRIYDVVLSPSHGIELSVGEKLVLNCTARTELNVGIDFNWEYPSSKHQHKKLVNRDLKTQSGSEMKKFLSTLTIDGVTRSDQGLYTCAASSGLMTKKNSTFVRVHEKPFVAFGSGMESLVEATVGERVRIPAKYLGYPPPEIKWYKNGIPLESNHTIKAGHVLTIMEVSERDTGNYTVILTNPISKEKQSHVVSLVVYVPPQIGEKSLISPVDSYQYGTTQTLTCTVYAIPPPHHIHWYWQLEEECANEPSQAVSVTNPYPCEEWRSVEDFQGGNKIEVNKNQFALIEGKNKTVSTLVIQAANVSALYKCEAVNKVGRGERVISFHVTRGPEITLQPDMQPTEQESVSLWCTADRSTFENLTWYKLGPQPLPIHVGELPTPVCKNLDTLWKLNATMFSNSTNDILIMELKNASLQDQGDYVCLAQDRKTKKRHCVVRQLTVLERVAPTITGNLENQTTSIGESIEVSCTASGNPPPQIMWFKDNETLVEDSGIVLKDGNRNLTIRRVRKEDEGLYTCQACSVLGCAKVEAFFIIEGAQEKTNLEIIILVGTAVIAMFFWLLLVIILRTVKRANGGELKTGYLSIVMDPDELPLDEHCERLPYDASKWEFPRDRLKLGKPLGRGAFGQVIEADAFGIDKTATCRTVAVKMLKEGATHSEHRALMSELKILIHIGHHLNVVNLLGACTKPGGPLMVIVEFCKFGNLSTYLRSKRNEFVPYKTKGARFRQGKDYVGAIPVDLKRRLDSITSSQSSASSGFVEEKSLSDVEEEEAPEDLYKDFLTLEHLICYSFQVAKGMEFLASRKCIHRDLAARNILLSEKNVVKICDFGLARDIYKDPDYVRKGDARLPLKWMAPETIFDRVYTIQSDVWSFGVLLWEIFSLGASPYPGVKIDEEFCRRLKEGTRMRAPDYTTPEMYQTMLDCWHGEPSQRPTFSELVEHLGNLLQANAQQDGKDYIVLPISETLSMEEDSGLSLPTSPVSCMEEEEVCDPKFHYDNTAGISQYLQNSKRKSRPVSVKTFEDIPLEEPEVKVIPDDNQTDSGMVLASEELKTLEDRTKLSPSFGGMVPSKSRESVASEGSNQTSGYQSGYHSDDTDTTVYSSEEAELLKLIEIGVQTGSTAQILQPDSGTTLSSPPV

Carbonic anhydrase 9 = Carbonic anhydrase 9 (Homo sapiens, UniProt Q16790); experiment: Inhibition of recombinant human carbonic anhydrase 9 assessed as inhibition constant incubated for 1 hr prior to testing by phenol red based stopped-flow CO2 hydration assay
Carbonic anhydrase 1 = Carbonic anhydrase 1 (Homo sapiens, UniProt P00915); experiment: Inhibition of recombinant human carbonic anhydrase 1 assessed as inhibition constant incubated for 1 hr prior to testing by phenol red based stopped-flow CO2 hydration assay
Chain of Carbonic anhydrase 1 (P00915 whole entry): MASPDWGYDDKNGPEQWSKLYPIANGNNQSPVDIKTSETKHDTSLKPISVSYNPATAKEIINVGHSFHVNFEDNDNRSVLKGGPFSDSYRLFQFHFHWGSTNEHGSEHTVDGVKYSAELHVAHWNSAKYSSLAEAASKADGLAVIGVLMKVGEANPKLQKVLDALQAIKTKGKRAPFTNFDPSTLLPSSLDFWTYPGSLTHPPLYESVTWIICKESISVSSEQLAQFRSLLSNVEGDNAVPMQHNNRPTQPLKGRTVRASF

Carbonic anhydrase 2 = Carbonic anhydrase 2 (Homo sapiens, UniProt P00918); experiment: Inhibition of recombinant human carbonic anhydrase 2 assessed as inhibition constant incubated for 1 hr prior to testing by phenol red based stopped-flow CO2 hydration assay
Carbonic anhydrase 12 = Carbonic anhydrase 12 (Homo sapiens, UniProt O43570); experiment: Inhibition of recombinant human carbonic anhydrase 12 assessed as inhibition constant incubated for 1 hr prior to testing by phenol red based stopped-flow CO2 hydration assay
Chain of Carbonic anhydrase 12 (O43570 whole entry): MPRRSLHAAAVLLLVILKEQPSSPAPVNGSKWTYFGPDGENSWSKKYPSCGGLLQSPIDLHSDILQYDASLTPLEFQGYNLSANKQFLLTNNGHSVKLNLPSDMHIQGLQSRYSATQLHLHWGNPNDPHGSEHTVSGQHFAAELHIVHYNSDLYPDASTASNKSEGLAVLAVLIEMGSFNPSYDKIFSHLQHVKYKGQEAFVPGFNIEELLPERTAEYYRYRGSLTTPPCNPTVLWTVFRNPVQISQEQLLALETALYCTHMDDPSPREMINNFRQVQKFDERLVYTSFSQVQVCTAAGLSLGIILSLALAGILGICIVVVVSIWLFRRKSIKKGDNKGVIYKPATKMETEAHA

[2] = Selectivity index, ratio of IC50 for cytotoxicity against HEK293 cells to IC50 for cytotoxicity against human MDA-MB-468 cells; format: toxicity, cell-based; details: HEK293 cells versus MDA-MB-468 cells, read-out: Ratio IC50
[3] = Cytotoxicity against HEK293 cells assessed as inhibition of cell growth incubated for 72 hrs by MTS assay; format: toxicity, cell-based; details: human
[4] = biological target: T1, Vascular endothelial growth factor receptor 2; experiment: Inhibition of VEGFR2 (unknown origin) using poly[Glu:Tyr] (4:1) as substrate at 20 uM incubated for 45 mins by kinase-glo max reagent based luminescence analysis relative to control
[5] = biological target: Activated CDC42 kinase 1 (Homo sapiens) (UniProt Q07912); experiment: Inhibition of TNK2 (unknown origin) assessed as residual activity at 10 uM incubated for 1 hr by KinomeScan analysis relative to control
Chain of Activated CDC42 kinase 1 (Homo sapiens) (Q07912 whole entry, looked up): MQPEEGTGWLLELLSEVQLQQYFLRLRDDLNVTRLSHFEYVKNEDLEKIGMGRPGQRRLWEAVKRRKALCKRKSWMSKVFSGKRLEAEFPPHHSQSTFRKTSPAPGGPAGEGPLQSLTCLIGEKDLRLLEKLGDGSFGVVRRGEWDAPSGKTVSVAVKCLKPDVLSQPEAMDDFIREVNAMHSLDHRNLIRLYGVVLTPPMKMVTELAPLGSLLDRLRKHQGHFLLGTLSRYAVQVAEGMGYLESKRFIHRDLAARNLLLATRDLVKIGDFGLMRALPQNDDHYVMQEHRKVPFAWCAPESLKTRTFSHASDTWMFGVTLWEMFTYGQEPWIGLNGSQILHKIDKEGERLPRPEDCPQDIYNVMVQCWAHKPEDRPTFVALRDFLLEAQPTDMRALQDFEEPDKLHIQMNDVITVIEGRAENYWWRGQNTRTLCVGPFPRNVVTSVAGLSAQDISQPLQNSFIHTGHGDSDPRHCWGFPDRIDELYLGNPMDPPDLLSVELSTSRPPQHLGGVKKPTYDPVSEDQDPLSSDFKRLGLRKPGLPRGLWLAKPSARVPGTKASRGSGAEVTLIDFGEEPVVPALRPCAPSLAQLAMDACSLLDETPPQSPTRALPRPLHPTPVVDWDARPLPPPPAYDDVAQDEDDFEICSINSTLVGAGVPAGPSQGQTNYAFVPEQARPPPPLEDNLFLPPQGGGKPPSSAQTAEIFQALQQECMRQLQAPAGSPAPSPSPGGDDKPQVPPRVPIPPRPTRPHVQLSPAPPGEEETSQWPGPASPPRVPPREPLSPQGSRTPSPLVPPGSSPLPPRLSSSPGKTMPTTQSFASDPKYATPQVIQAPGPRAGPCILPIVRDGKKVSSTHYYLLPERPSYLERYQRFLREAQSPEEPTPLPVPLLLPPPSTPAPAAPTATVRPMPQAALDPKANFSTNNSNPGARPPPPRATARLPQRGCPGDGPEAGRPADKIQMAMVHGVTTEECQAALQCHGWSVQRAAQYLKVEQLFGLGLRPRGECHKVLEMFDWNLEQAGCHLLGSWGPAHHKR

[6] = biological target: T2, Serine/threonine-protein kinase D2 (Homo sapiens) (UniProt Q9BZL6); experiment: Inhibition of PRKD2 (unknown origin) assessed as residual activity at 10 uM incubated for 1 hr by KinomeScan analysis relative to control
T2 sequence (whole entry): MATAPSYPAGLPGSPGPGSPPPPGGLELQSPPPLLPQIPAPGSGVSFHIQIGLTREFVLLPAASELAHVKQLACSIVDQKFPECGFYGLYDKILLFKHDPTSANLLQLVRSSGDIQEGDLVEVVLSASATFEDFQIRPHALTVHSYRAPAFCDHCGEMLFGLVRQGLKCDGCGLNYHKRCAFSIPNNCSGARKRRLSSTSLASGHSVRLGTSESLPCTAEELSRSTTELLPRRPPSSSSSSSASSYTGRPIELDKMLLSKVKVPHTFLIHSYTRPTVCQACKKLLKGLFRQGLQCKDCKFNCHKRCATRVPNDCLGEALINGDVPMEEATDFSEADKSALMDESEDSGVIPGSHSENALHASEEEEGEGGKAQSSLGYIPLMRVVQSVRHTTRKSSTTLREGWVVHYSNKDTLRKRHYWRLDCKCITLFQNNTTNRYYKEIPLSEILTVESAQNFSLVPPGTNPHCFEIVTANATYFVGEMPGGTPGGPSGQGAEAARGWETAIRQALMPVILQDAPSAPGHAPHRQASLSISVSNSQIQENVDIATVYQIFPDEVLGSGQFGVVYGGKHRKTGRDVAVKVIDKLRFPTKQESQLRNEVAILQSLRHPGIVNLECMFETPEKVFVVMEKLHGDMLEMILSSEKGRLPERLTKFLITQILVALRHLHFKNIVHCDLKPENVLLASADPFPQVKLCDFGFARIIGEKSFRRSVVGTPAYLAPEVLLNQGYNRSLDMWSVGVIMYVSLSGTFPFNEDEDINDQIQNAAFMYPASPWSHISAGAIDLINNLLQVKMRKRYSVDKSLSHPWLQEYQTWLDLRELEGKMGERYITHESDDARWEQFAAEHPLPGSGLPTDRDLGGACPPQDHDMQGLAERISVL

[7] = biological target: T3, Myosin light chain kinase family member 4 (Homo sapiens) (UniProt Q86YV6); experiment: Inhibition of MYLK4 (unknown origin) assessed as residual activity at 10 uM incubated for 1 hr by KinomeScan analysis relative to control
T3 sequence (whole entry): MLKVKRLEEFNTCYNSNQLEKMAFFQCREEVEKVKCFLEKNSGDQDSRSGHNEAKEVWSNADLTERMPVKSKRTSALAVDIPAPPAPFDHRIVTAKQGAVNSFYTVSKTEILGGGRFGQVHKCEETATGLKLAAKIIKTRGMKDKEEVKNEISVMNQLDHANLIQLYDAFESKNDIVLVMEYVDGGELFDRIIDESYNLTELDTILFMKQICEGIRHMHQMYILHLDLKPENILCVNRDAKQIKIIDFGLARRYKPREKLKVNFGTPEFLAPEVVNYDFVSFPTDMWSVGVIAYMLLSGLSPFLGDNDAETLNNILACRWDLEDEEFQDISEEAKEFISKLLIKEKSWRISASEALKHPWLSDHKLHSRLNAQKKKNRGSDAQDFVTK

[8] = biological target: Mast/stem cell growth factor receptor Kit (Homo sapiens) (UniProt P10721); experiment: Inhibition of c-KIT (unknown origin) assessed as residual activity at 10 uM incubated for 1 hr by KinomeScan analysis relative to control
Chain of Mast/stem cell growth factor receptor Kit (Homo sapiens) (P10721 whole entry): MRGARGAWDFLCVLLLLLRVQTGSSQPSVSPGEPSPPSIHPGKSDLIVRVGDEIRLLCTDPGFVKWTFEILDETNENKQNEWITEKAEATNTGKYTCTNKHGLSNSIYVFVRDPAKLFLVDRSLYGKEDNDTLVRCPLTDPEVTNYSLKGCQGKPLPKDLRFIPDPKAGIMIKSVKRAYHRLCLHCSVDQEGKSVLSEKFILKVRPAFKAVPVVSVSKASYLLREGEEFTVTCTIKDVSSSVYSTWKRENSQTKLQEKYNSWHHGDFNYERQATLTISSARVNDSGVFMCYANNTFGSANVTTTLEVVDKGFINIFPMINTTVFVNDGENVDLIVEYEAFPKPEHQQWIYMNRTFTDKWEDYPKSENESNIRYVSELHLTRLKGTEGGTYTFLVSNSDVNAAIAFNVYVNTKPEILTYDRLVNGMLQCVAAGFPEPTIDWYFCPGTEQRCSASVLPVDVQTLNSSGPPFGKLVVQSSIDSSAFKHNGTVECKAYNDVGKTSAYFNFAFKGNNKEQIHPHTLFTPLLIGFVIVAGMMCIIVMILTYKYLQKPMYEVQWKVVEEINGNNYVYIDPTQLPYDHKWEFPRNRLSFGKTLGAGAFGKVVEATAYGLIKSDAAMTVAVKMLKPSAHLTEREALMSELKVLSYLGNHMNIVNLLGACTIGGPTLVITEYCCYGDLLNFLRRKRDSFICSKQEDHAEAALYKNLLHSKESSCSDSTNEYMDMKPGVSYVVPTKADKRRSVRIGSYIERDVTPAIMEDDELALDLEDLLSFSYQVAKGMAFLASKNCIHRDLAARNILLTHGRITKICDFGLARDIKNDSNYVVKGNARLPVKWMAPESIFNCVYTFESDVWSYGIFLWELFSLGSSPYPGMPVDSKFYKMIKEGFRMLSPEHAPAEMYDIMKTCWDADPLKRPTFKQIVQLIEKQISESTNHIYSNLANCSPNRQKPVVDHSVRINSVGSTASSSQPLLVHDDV

[9] = biological target: T1, Vascular endothelial growth factor receptor 2; experiment: Inhibition of VEGFR2 (unknown origin) using poly[Glu:Tyr] (4:1) as substrate incubated for 45 mins by kinase-glo max reagent based luminescence analysis

Row | Structure (SMILES) | growth, % of control at 20 µM (HUVEC) [%] | pIC50 (MDA-MB-468) | further results
1 | O=S1(=O)N=C(NCc2ccc(F)cc2)Nc2ccc(Cl)cc21 | 70.4 |  | 
2 | CC(NC1=NS(=O)(=O)c2ccc(Cl)cc2N1)c1ccccc1 (stereo not given) | 40.5 | 4.04 | 
3 | CC(NC1=NS(=O)(=O)c2ccccc2N1)c1ccccc1 (stereo not given) | 25.2 | 4.23 | inhibition [1]: Active
4 | O=S1(=O)N=C(NCCc2ccccc2)Nc2ccc(Br)cc21 | 52.7 |  | 
5 | Cc1cccc(CNC2=NS(=O)(=O)c3cc(Cl)ccc3N2)c1 | 145 | 3.93 | inhibition [1]: Active
6 | CC1=Nc2ccc(Cl)cc2S(=O)(=O)N1 [DIAZOXIDE] | 15.2 |  | 
7 | COc1cccc(CNC2=NS(=O)(=O)c3ccc(Cl)cc3N2)c1 | 129 |  | 
8 | O=S1(=O)N=C(NCc2ccc(OC(F)(F)F)cc2)Nc2ccc(Cl)cc21 | 120 | 4.36 | 
9 | O=S1(=O)N=C(NCc2ccc(C(F)(F)F)cc2)Nc2cc(Cl)ccc21 | 8.6 |  | 
10 | O=S1(=O)N=C(NCc2ccc(OC(F)(F)F)cc2)Nc2ccc(Br)cc21 | 127 | 4.41 | inhibition [1]: Active; pKi (Carbonic anhydrase 9): < 4.00; pKi (Carbonic anhydrase 1): < 4.00; pKi (Carbonic anhydrase 2): < 4.00; pKi (Carbonic anhydrase 12): < 4.00
11 | O=S1(=O)N=C(NCc2ccncc2)Nc2ccc(Cl)cc21 | 66.8 |  | 
12 | CCNC1=NS(=O)(=O)c2ccccc2N1 | 88.4 |  | 
13 | CSC1=NS(=O)(=O)c2cc(F)ccc2N1C | 70.1 |  | 
14 | Cc1ccccc1CNC1=NS(=O)(=O)c2ccc(Cl)cc2N1 | 112 |  | 
15 | CC(C)C(C)NC1=NS(=O)(=O)c2cc(F)ccc2N1 (stereo not given) | 76.4 |  | 
16 | O=S1(=O)N=C(NCCc2ccccc2)Nc2ccc(Cl)cc21 | 81.7 |  | 
17 | COc1ccc(CNC2=NS(=O)(=O)c3ccc(Cl)cc3N2)cc1 | 132 |  | 
18 | COc1ccccc1CNC1=NS(=O)(=O)c2ccc(Cl)cc2N1 | 83.9 |  | 
19 | O=S1(=O)N=C(NCc2ccc(F)cc2F)Nc2ccc(Br)cc21 | 127 |  | 
20 | COc1cccc(CCNC2=NS(=O)(=O)c3ccc(Cl)cc3N2)c1 | 103 |  | 
21 | O=S1(=O)N=C(NCCCc2ccccc2)Nc2ccccc21 | 53.6 |  | 
22 | O=S1(=O)N=C(NCCCc2ccccc2)Nc2ccc(Cl)cc21 | 91.6 | 4.25 | selectivity ratio [2]: 0.5; IC50 at 72 h [3]: 30.9 µM
23 | O=S1(=O)N=C(NCc2ccc(OC(F)(F)F)cc2)Nc2ccccc21 | 88.6 | 4.15 | 
24 | O=S1(=O)N=C(NC2CCCC2)Nc2cc(Cl)ccc21 | 174 | 3.83 | 
25 | O=S1(=O)N=C(NC2CCCC2)Nc2ccc(Cl)cc21 |  | 4.11 | inhibition [1]: Active
26 | O=S1(=O)N=C(NCCc2ccccc2)Nc2cc(Cl)ccc21 | 197 |  | 

Row | Structure (SMILES) | growth, % of control at 20 µM (HUVEC) [%] | pIC50 (MDA-MB-468) | further results
27 | O=S1(=O)N=C(NCCCCc2ccccc2)Nc2ccc(Cl)cc21 | 116 |  | IC50 at 72 h [3]: 23.4 µM
28 | COc1ccc(CCNC2=NS(=O)(=O)c3cc(F)ccc3N2)cc1 |  |  | pKi (Carbonic anhydrase 9): < 4.00; pKi (Carbonic anhydrase 1): < 4.00; pKi (Carbonic anhydrase 2): < 4.00; pKi (Carbonic anhydrase 12): < 4.00
29 | O=S1(=O)N=C(NCCCc2ccccc2)Nc2ccc(Br)cc21 | 28.6 |  | 
30 | NS(=O)(=O)c1ccc(CCNC2=NS(=O)(=O)c3ccc(Cl)cc3N2)cc1 |  |  | pKi (Carbonic anhydrase 1): 7.30; pKi (Carbonic anhydrase 2): 8.06; pKi (Carbonic anhydrase 12): 8.42
31 | Cc1cccc(CNC2=NS(=O)(=O)c3ccc(Cl)cc3N2)c1 | 125 |  | 
32 | COc1ccccc1CNC1=NS(=O)(=O)c2cc(F)ccc2N1 | 29.4 |  | 
33 | CC(NC1=NS(=O)(=O)c2cc(Br)ccc2N1)c1ccccc1 (stereo not given) | 104 |  | 
34 | O=S1(=O)N=C(NCc2ccccc2)Nc2ccc(Cl)cc21 | 122 |  | 
35 | CC(NC1=NS(=O)(=O)c2cc(Cl)ccc2N1)c1ccccc1 (stereo not given) | 53.7 |  | 
36 | CCCCCC(=O)c1c(O)nc(OC)c(OC)c1O |  | 5.17 | selectivity ratio [2]: 3.9; IC50 at 72 h [3]: 25.9 µM
37 | O=S1(=O)N=C(NCCc2c[nH]c3ccccc23)Nc2ccc(F)cc21 | 41.8 |  | 
38 | COc1cccc(CNC2=NS(=O)(=O)c3cc(Cl)ccc3N2)c1 | 95.5 | < 4.00 | inhibition [1]: Active
39 | O=S1(=O)N=C(NCc2ccccc2OC(F)(F)F)Nc2cc(Cl)ccc21 | 124 | 4.83 | selectivity ratio [2]: 2; IC50 at 72 h [3]: 30.5 µM
40 | COc1ccc(CNC2=NS(=O)(=O)c3cc(Cl)ccc3N2)cc1 | 90.7 | 4.20 | pKi (Carbonic anhydrase 9): < 4.00; pKi (Carbonic anhydrase 1): < 4.00; pKi (Carbonic anhydrase 2): < 4.00; pKi (Carbonic anhydrase 12): < 4.00
41 | O=S1(=O)N=C(NCc2ccc(F)cc2F)Nc2cc(Cl)ccc21 | 172 | 4.07 | selectivity ratio [2]: 1.5; IC50 at 72 h [3]: 129 µM
42 | Cc1ccccc1CNC1=NS(=O)(=O)c2cc(Cl)ccc2N1 | 117 |  | 
43 | O=S1(=O)N=C(NCCCc2ccccc2)Nc2cc(Cl)ccc21 | 175 | 4.04 | selectivity ratio [2]: 1.2; IC50 at 72 h [3]: 111 µM
44 | O=S1(=O)N=C(NCc2ccccc2)Nc2cc(Cl)ccc21 | 200 | 4.19 | selectivity ratio [2]: 1.5; IC50 at 72 h [3]: 102 µM
45 | Cc1ccc(CNC2=NS(=O)(=O)c3cc(Cl)ccc3N2)cc1 | 119 | 4.37 | 
46 | O=S1(=O)NC(=S)Nc2ccc(F)cc21 | 50.1 |  | 
47 | Cc1ccc(CNC2=NS(=O)(=O)c3ccc(Cl)cc3N2)cc1 | 146 |  | 
48 | O=S1(=O)N=C(NCCc2c[nH]c3ccccc23)Nc2cc(Cl)ccc21 | 34.1 |  | 
49 | CSC1=NS(=O)(=O)c2ccc(Cl)cc2N1 | 20.9 |  | 
50 | O=S1(=O)N=C(NCc2ccc(OC(F)(F)F)cc2)Nc2cc(Cl)ccc21 | 199 | 4.32 | inhibition [1]: Active; inhibition [4]: 33%; Activity [5]: 0.1%; Activity [6]: 8%; Activity [7]: 33%; Activity [8]: 32%; pIC50 [9]: 3.85; selectivity ratio [2]: 1.6; IC50 at 72 h [3]: 77.2 µM
51 | O=S1(=O)N=C(NCc2ccc(F)cc2F)Nc2ccc(Cl)cc21 | 133 | 4.34 | selectivity ratio [2]: 1.3; IC50 at 72 h [3]: 58.9 µM
